Test results as given in US6706663B2, “Herbicidal 3-heterocyclic substituted benzisothiazole and benzisoxazole compounds” (Wyeth, priority 2000, dated 2004).

How the values were obtained:
[1] = test system: ECHORC (Echinochloa oryzoides); assay: Flooded paddy, preemergence weed control; type: in vivo, Echinochloa oryzoides (Ard.) Fritsch.; conditions: rated 3-4 weeks after treatment, 0-9 rating scale
Summary of the method: (§1)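 Visual 0-9 rating versus control, scoring stand, vigor, malformation, size, chlorosis and overall appearance. Silt loam soil, propagules in top 0.5 cm; flood depth 1.5–3 cm held for the whole test; greenhouse.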

[2] = test system: SETVI (Setaria viridis); assay: Postemergence herbicidal evaluation; type: in vivo, (L.) Beau; conditions: postemergence
Summary of the method: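 Ratings use a 0-9 visual scale covering stand, vigor, malformation, size, chlorosis and appearance versus a control, scored 4-5 weeks post-spray. Roughly two-week-old seedlings received about 0.0040-1.000 kg/ha active, applied in 50/50 acetone/water with 0.5% TWEEN 20. Multiple tests per compound were averaged.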

[3] = test system: ORYSAT (Rice, Tebonnet); assay: Flooded paddy, post-transplant rice tolerance; type: in vivo, Oryza sativa, (L.) Tebonnet; conditions: flooded paddy, post-transplant rice, rated 3-4 weeks after treatment, 0-9 rating scale
Summary of the method: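 Visual 0–9 injury rating against a control, covering stand, vigor, malformation, size, chlorosis and overall appearance. Treatment was post-transplant onto flooded containers (water 1.5–3 cm deep, silt loam) holding two ten-day-old cv. Tebonnet seedlings, maintained on greenhouse benches.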

[4] = test system: GLXMAW (Soybean, Williams); assay: Postemergence herbicidal evaluation; type: in vivo, Glycine max, (L.) Merr. cv Williams; conditions: postemergence
Summary of the method: (§2)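 Seedlings grown for about two weeks were sprayed postemergence and then kept under standard greenhouse care. Injury was rated visually 4–5 weeks after treatment on a 0–9 scale against untreated controls, and ratings from repeat tests were averaged.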

[5] = test system: GALAP (Galium aparine); assay: Postemergence herbicidal evaluation; type: in vivo; conditions: postemergence
Summary of the method: as §2

[6] = test system: SAGPY (Sagittaria pygmaea); assay: Flooded paddy, preemergence weed control; type: in vivo, L.; conditions: rated 3-4 weeks after treatment, 0-9 rating scale
Summary of the method: as §1

[7] = test system: MOOVA (Monochoria vaginalis); assay: Flooded paddy, preemergence weed control; type: in vivo, Presl.; conditions: rated 3-4 weeks after treatment, 0-9 rating scale
Summary of the method: as §1

[8] = test system: ORYSAT (Rice, Tebonnet); assay: Postemergence herbicidal evaluation; type: in vivo, Oryza sativa, (L.) Tebonnet; conditions: postemergence
Summary of the method: as §2

[9] = test system: ZEAMX (Corn, Field); assay: Postemergence herbicidal evaluation; type: in vivo, Zea mays, L.; conditions: postemergence
Summary of the method: as §2

[10] = test system: ECHCG (Echinochloa crus-galli); assay: Postemergence herbicidal evaluation; type: in vivo, (L.) Beau; conditions: postemergence
Summary of the method: as §2

[11] = test system: CYPIR (Cyperus iria); assay: Flooded paddy, preemergence weed control; type: in vivo; conditions: rated 3-4 weeks after treatment, 0-9 rating scale
Summary of the method: as §1

[12] = test system: CHEAL (Chenopodium album); assay: Preemergence herbicidal evaluation; type: in vivo, L.; conditions: rated 4-5 weeks after treatment
Summary of the method: (§3)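 Test compound is applied in aqueous acetone to cups just after seeding. Cups are watered and maintained on greenhouse benches. Each cup is scored 0–9 by eye relative to a control after four to five weeks.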

[13] = test system: AMBEL (Ambrosia artemisifolia); assay: Preemergence herbicidal evaluation; type: in vivo, L.; conditions: rated 4-5 weeks after treatment
Summary of the method: as §3

[14] = test system: CASOB (Cassia obtusifolia); assay: Preemergence herbicidal evaluation; type: in vivo, L.; conditions: rated 4-5 weeks after treatment
Summary of the method: as §3

[15] = test system: ORYSAT (Rice, Tebonnet); assay: Preemergence herbicidal evaluation; type: in vivo, Oryza sativa, (L.) Tebonnet; conditions: rated 4-5 weeks after treatment
[16] = test system: ABUTH (Abutilon theophrasti); assay: Postemergence herbicidal evaluation; type: in vivo, Medic.; conditions: postemergence
Summary of the method: as §2

[17] = test system: IPOHE (Ipomoea hederacea); assay: Postemergence herbicidal evaluation; type: in vivo, (L.) Jacq.; conditions: postemergence
Summary of the method: as §2

[18] = test system: IPOHE (Ipomoea hederacea); assay: Preemergence herbicidal evaluation; type: in vivo, (L.) Jacq.; conditions: rated 4-5 weeks after treatment
[19] = test system: SETVI (Setaria viridis); assay: Preemergence herbicidal evaluation; type: in vivo, (L.) Beau; conditions: rated 4-5 weeks after treatment
Summary of the method: as §3

[20] = test system: ECHCG (Echinochloa crus-galli); assay: Preemergence herbicidal evaluation; type: in vivo, (L.) Beau; conditions: rated 4-5 weeks after treatment
Summary of the method: as §3

**Q.** For Cn1c(C(F)(F)F)cc(=O)n(-c2ccc3snc(C4(C)OCCO4)c3c2)c1=O [Compound 54, 1-methyl-3-[3-(2-methyl-1,3-dioxolan-2-yl)-1,2-benzisothiazol-5-yl]-6-(trifluoromethyl)uracil], which “herbicidal rating, ECHORC” value ([1]; rate 0.0080 kg/ha) is on record?
**A.** 8.0

**Q.** What about the “herbicidal rating, ECHORC” value ([1]; rate 0.0320 kg/ha) of the same compound?
**A.** 8.0

**Q.** What about the “herbicidal rating, ECHORC” value ([1]; rate 0.1250 kg/ha) of the same compound?
**A.** 9.0

**Q.** What about the SETVI herbicidal rating ([2]; rate 0.0320 kg/ha) of the same compound?
**A.** 3.0

**Q.** And the SETVI herbicidal rating ([2]; rate 0.0620 kg/ha)?
**A.** 9.0

**Q.** And the SETVI herbicidal rating ([2]; rate 0.1250 kg/ha)?
**A.** 8.0

**Q.** What about the “herbicidal rating, ORYSAT (rice tolerance)” value (“herbicidal rating, ORYSAT” for short) ([3]; rate 0.0080 kg/ha) of the same compound?
**A.** 7.0

**Q.** And the “herbicidal rating, ORYSAT” value ([3]; rate 0.0320 kg/ha)?
**A.** 8.5

**Q.** And the “herbicidal rating, ORYSAT” value ([3]; rate 0.1250 kg/ha)?
**A.** 9.0

**Q.** What about the GLXMAW herbicidal rating ([4]; rate 0.0320 kg/ha) of the same compound?
**A.** 8.0

**Q.** What about the GLXMAW herbicidal rating ([4]; rate 0.0620 kg/ha) of the same compound?
**A.** 8.5

**Q.** What about the GLXMAW herbicidal rating ([4]; rate 0.1250 kg/ha) of the same compound?
**A.** 9.0

**Q.** And the GALAP herbicidal rating ([5]; rate 0.0320 kg/ha)?
**A.** 5.0

**Q.** And the GALAP herbicidal rating ([5]; rate 0.0620 kg/ha)?
**A.** 9.0

**Q.** And the GALAP herbicidal rating ([5]; rate 0.1250 kg/ha)?
**A.** 9.0

**Q.** And the “herbicidal rating, SAGPY” value ([6]; rate 0.0080 kg/ha)?
**A.** 0.0

**Q.** And the “herbicidal rating, SAGPY” value ([6]; rate 0.0320 kg/ha)?
**A.** 7.0

**Q.** What about the “herbicidal rating, SAGPY” value ([6]; rate 0.1250 kg/ha) of the same compound?
**A.** 9.0

**Q.** What about the “herbicidal rating, MOOVA” value ([7]; rate 0.0320 kg/ha) of the same compound?
**A.** 9.0

**Q.** What about the “herbicidal rating, MOOVA” value ([7]; rate 0.1250 kg/ha) of the same compound?
**A.** 9.0

**Q.** What about the ORYSAT herbicidal rating ([8]; rate 0.0320 kg/ha) of the same compound?
**A.** 5.0

**Q.** What about the ORYSAT herbicidal rating ([8]; rate 0.0620 kg/ha) of the same compound?
**A.** 6.5

**Q.** And the ORYSAT herbicidal rating ([8]; rate 0.1250 kg/ha)?
**A.** 7.0

**Q.** What about the ZEAMX herbicidal rating ([9]; rate 0.0320 kg/ha) of the same compound?
**A.** 4.0

**Q.** What about the ZEAMX herbicidal rating ([9]; rate 0.0620 kg/ha) of the same compound?
**A.** 4.0

**Q.** What about the ZEAMX herbicidal rating ([9]; rate 0.1250 kg/ha) of the same compound?
**A.** 5.5

**Q.** What about the ECHCG herbicidal rating ([10]; rate 0.0320 kg/ha) of the same compound?
**A.** 1.0

**Q.** And the ECHCG herbicidal rating ([10]; rate 0.0620 kg/ha)?
**A.** 3.0

**Q.** And the ECHCG herbicidal rating ([10]; rate 0.1250 kg/ha)?
**A.** 3.0

**Q.** And the “herbicidal rating, CYPIR” value ([11]; rate 0.0080 kg/ha)?
**A.** 0.0

**Q.** And the “herbicidal rating, CYPIR” value ([11]; rate 0.0320 kg/ha)?
**A.** 7.5

**Q.** And the “herbicidal rating, CYPIR” value ([11]; rate 0.1250 kg/ha)?
**A.** 9.0

**Q.** And the “Preemergence herbicidal rating CHEAL” value ([12]; Rate 0.0620 kg/ha)?
**A.** 9.0

**Q.** What about the “Preemergence herbicidal rating CHEAL” value ([12]; Rate 0.1250 kg/ha) of the same compound?
**A.** 9.0

**Q.** What about the “Preemergence herbicidal rating CHEAL” value ([12]; Rate 0.2500 kg/ha) of the same compound?
**A.** 9.0

**Q.** And the “Preemergence herbicidal rating AMBEL” value ([13]; Rate 0.0620 kg/ha)?
**A.** 9.0

**Q.** What about the “Preemergence herbicidal rating AMBEL” value ([13]; Rate 0.1250 kg/ha) of the same compound?
**A.** 9.0

**Q.** And the “Preemergence herbicidal rating AMBEL” value ([13]; Rate 0.2500 kg/ha)?
**A.** 9.0

**Q.** And the “Preemergence herbicidal rating CASOB” value ([14]; Rate 0.0620 kg/ha)?
**A.** 9.0

**Q.** And the “Preemergence herbicidal rating CASOB” value ([14]; Rate 0.1250 kg/ha)?
**A.** 9.0

**Q.** What about the “Preemergence herbicidal rating CASOB” value ([14]; Rate 0.2500 kg/ha) of the same compound?
**A.** 9.0

**Q.** And the “Preemergence herbicidal rating ORYSAT” value ([15]; Rate 0.0620 kg/ha)?
**A.** 9.0

**Q.** And the “Preemergence herbicidal rating ORYSAT” value ([15]; Rate 0.1250 kg/ha)?
**A.** 9.0

**Q.** And the “Preemergence herbicidal rating ORYSAT” value ([15]; Rate 0.2500 kg/ha)?
**A.** 9.0

**Q.** And the ABUTH herbicidal rating ([16]; rate 0.0320 kg/ha)?
**A.** 9.0

**Q.** And the ABUTH herbicidal rating ([16]; rate 0.0620 kg/ha)?
**A.** 9.0

**Q.** And the ABUTH herbicidal rating ([16]; rate 0.1250 kg/ha)?
**A.** 9.0

**Q.** And the IPOHE herbicidal rating ([17]; rate 0.0320 kg/ha)?
**A.** 9.0

**Q.** And the IPOHE herbicidal rating ([17]; rate 0.0620 kg/ha)?
**A.** 9.0

**Q.** What about the IPOHE herbicidal rating ([17]; rate 0.1250 kg/ha) of the same compound?
**A.** 9.0

**Q.** And the “Preemergence herbicidal rating IPOHE” value ([18]; Rate 0.0620 kg/ha)?
**A.** 9.0

**Q.** What about the “Preemergence herbicidal rating IPOHE” value ([18]; Rate 0.1250 kg/ha) of the same compound?
**A.** 9.0

**Q.** What about the “Preemergence herbicidal rating IPOHE” value ([18]; Rate 0.2500 kg/ha) of the same compound?
**A.** 9.0

**Q.** What about the “Preemergence herbicidal rating SETVI” value ([19]; Rate 0.0620 kg/ha) of the same compound?
**A.** 9.0

**Q.** What about the “Preemergence herbicidal rating SETVI” value ([19]; Rate 0.1250 kg/ha) of the same compound?
**A.** 9.0

**Q.** And the “Preemergence herbicidal rating SETVI” value ([19]; Rate 0.2500 kg/ha)?
**A.** 9.0

**Q.** What about the “Preemergence herbicidal rating ECHCG” value ([20]; Rate 0.0620 kg/ha) of the same compound?
**A.** 9.0

**Q.** What about the “Preemergence herbicidal rating ECHCG” value ([20]; Rate 0.1250 kg/ha) of the same compound?
**A.** 9.0

**Q.** What about the “Preemergence herbicidal rating ECHCG” value ([20]; Rate 0.2500 kg/ha) of the same compound?
**A.** 9.0
